Patent US7241797B2, “Method of increasing milk production” (University of Cincinnati, priority 2002, dated 2007)

Key:
[1] = test system: cultured mammospheres; experiment: Morphology and morphometry of cultured mammospheres treated with serotonergic agents; type: cell-based, mouse; conditions: for Mammosphere morphology (qualitative): 1 μg·ml−1, replenished each day, 7-day incubation
Procedure: Qualitative comparison of typical mammospheres in cultures treated with (a) control; (b) 5-HT; (c) methysergide; (d) PCPA. Each of the agents was added to the medium at a concentration of 1 μg·ml^−1 and replenished each day during a 7-day incubation. (e) histogram depicting the median areas (in arbitrary units) of mammospheres sorted by size (n=350, 2 replicate experiments) of control- and methysergide-treated cultures.
In addition to the effects on gene expression shown above, perturbing 5-HT signaling caused morphological changes in mammosphere cultures. Under control conditions the mammospheres were comprised of a boundary layer surrounding an interior lumenal space (FIG. 5a). Qualitatively, mammospheres treated with different serotonergic agents had markedly different structures. […] Those treated with PCPA were very distinctive because the boundary layer was consistently thin, and, there was a very high contrast between the dark boundary and light central space.
We performed a morphometric comparison of control and methysergide-treated mammospheres employing a Macintosh computer using the public domain NIH Image program (developed at the U.S. National Institutes of Health and available on the Internet at http://rsb.info.nih.gov/nih-image/). Threshold was adjusted to automatically outline the mammospheres, and the organoids were sorted into a frequency distribution based on particle sizes. The median size of the methysergide-treated mammospheres was about 40% larger than the control mammospheres (p<0.01; Mann-Whitney U-test; FIG. 5e).
(§1) Primary mouse mammary epithelium was prepared from nulliparous mice by enzymatic digestion and differential trypsinization, modifying the method of Imagawa (Pedchenko, V. K. & Imagawa, W. T. Mammogenic hormones differentially modulate keratinocyte growth factor (KGF)-induced proliferation and KGF receptor expression in cultured mouse mammary gland epithelium. Endocrinology 139,2519-2526 (1998)). Enriched epithelial cells (2×10^5 cells per well) were plated in basement membrane (Matrigel, 0.5 ml/well, BD Biosciences) reconstituted in a 12-well plate so that they formed mammospheres. They were pre-incubated for seven days, and treated with ovine PRL (1 μg/ml) for 2 days. The cell culture experiments were replicated 2-3 times in all cases.

[2] = test system: WAP gene expression in cultured mammospheres; experiment: Milk protein gene expression (RT-PCR) in mammosphere cultures treated with serotonergic agents; type: cell-based, mouse; conditions: cells cultured in 1% fetal serum, WAP constitutively expressed at a low level
Procedure: Primary mouse mammary cultures were treated with PRL, methysergide (Methy.), or 5-HT as noted (+). RT-PCR products for various genes expressed in the mammary gland are shown by the labels at the left margin.
We tested whether 5-HT might have an autocrine/paracrine effect first by examining the expression of various genes in mammosphere cultures (FIG. 4), and then by morphometry (FIG. 5). Using a broad-spectrum 5-HT receptor antagonist methysergide, in combination with PRL, we observed that the expression levels of several mammary gland genes, including whey acidic protein (WAP), glycosylated cell adhesion molecule-1 (GlyCAM-1) and […]. The effects of both 5-HT and methysergide (agonist and antagonist) were tested using cells cultured in 1% fetal serum, wherein the WAP gene is constitutively expressed at a low level. Under these conditions 5-HT suppressed WAP, and methysergide induced WAP.
Primary mouse mammary epithelium was prepared from nulliparous mice by enzymatic digestion and differential trypsinization, modifying the method of Imagawa (Pedchenko, V. K. & Imagawa, W. T. Mammogenic hormones differentially modulate keratinocyte growth factor (KGF)-induced proliferation and KGF receptor expression in cultured mouse mammary gland epithelium. Endocrinology 139,2519-2526 (1998)). […]

[3] = test system: TPH mRNA in primary mouse mammary epithelial organoids; experiment: TPH mRNA induction in primary cultures of mammary epithelial organoids; type: cell-based
Procedure: (b) TPH induction by milk stasis. Contralateral #3 glands were either open and suckled (+) or sealed with cyanoacrylate glue and unsuckled (−). RT-PCR was performed for TPH and glyceraldehyde-phosphate-dehydrogenase (GPDH), as shown.
(§2) Having established that mammary gland TPH expression was induced in vivo we studied TPH induction in primary cultures of mammary epithelial organoids. These organoids, sometimes referred to as “mammospheres,” secrete milk proteins, fluids and ions vectorially into a closed central lumen when cultured with lactogenic hormones. TPH increased slowly for at least 48 h following addition of PRL to the medium, and the optimum PRL dose was 1 μg/ml (approximately 20 nM) (FIG. 2a). […] First, the time course of TPH mRNA induction was much slower that other genes known to be directly regulated by PRL. Secondly, the in vitro induction was blocked by cycloheximide; and thirdly, the TPH promoter was not induced by PRL in reporter gene assays (unpublished results).
as §1

[4] = test system: lactating dams (mice); experiment: Milk yield of nursing dams given carbidopa injections (nursing-related weight loss as index of milk yield); type: in vivo
Procedure: Nursing dams were given 4 injections of carbidopa (1 mg/kg body weight) at 12 h intervals (or control vehicle). After the final injection the pups were removed from the dam for 4 h. At the end of 4 h the dams were weighed and reunited with the pups to nurse for 1 h. After the nursing interval the dams were again weighed and the nursing-related weight losses were analyzed as an index of milk yield (Table 1). The litters of lactating dams (mice) were adjusted to 8 pups on day 1 postpartum. Carbidopa (1 mg/kg in 45% hydroxypropyl-β-cyclodextrin) or control vehicle were injected at approximately 12 h intervals beginning in the evening of postpartum day 3. After 4 injections (morning of day 5) pups were separated from the dams for 4 h. At the end of separation interval, the dams were injected with oxytocin (0.2U) and both the dams and their litters and were weighed. The litters were reunited with the dams for a 1 h nursing interval. The weights of the dams were measured after nursing and the differences in the weights of the dams before and after nursing are reported as milk yield. The percent increases with carbidopa-treatment are shown for statistically significant variables. […] Numbers of animals in treatment groups are in parentheses.

[5] = test system: TPH promoter; experiment: TPH promoter reporter gene assays; type: cell-based; conditions: unpublished results
Procedure: as §2

[6] = carbidopa 1 mg/kg, 4 injections

## NCCc1c[nH]c2ccc(O)cc12 [5-HT, 5-hydroxytryptamine]
[1]; 1 μg·ml−1, 7-day incubation, no quantitative morphometry
  Mammosphere size vs controls (qualitative): smaller than the controls
[1]
  Mammosphere morphology (qualitative): either filled or collapsed, with no obvious lumen
[2]
  Effect on WAP gene expression: suppressed

## CC[C@@H](CO)NC(=O)[C@@H]1C=C2c3cccc4c3c(cn4C)C[C@H]2N(C)C1 [methysergide]
[1]; 1 μg·ml−1, 7-day incubation, p<0.01, Mann-Whitney U-test
  Median size of mammospheres, increase vs control mammospheres: about 40%
[1]
  Mammosphere morphology (qualitative): easily visible central lumena
[2]
  Effect on WAP gene expression: induced

## N[C@@H](Cc1ccc(Cl)cc1)C(=O)O (racemic) [PCPA, p-chloro-phenylalanine]
[1]
  Mammosphere morphology (qualitative): easily visible central lumena

## C[C@@H]1C[C@@H]([C@H](O)CC2CC(=O)NC(=O)C2)C(=O)[C@@H](C)C1 [cycloheximide]
[3]
  Effect on in vitro induction of TPH by PRL: blocked

## C[C@@](Cc1ccc(O)c(O)c1)(NN)C(=O)O [Carbidopa, S-(−)-α-hydrazino-3,4-dihydroxy-2-methylbenzenepropanoic acid]
[4]; [6]
  Percent increase in litter weight relative to dam weight with carbidopa treatment vs vehicle control: >8.1%
  Percent increase in milk yield with carbidopa treatment vs vehicle control: >16.7%
[4]; carbidopa 1 mg/kg, 4 injections at 12 h intervals, 4 h separation, 1 h nursing, mean ± s.e.m.
  Milk Yield (difference in dam weight before and after 1 h nursing): 2.1 ± 0.1 g
[4]; carbidopa 1 mg/kg, 4 injections, absolute basis
  Percent increase in litter (pup) weight with carbidopa treatment vs vehicle control: >11.6%
[4]; carbidopa 1 mg/kg, 4 injections, mean ± s.e.m.
  Litter/Dam (litter weight relative to dam weight): 0.93 ± 0.03
[4]; litters of 8 pups, carbidopa 1 mg/kg to dam, 4 injections, mean ± s.e.m.
  Litter Weight: 36.5 ± 1.8 g

B1: PRL: prolactin, lactogenic hormone; ovine PRL added to the mammosphere cultures (protein, UniProt P01240 31-229, looked up)
Prolactin: TPVCPNGPGNCQVSLRDLFDRAVMVSHYIHNLSSEMFNEFDKRYAQGKGFITMALNSCHTSSLPTPEDKEQAQQTHHEVLMSLILGLLRSWNDPLYHLVTEVRGMKGVPDAILSRAIEIEEENKRLLEGMEMIFGQVIPGAKETEPYPVWSGLPSLQTKDEDARHSAFYNLLHCLRRDSSKIDTYLKLLNCRIIYNNNC
[3]
  Optimum dose for TPH mRNA induction: 1 µg/mL
  Optimum dose for TPH mRNA induction (molar): approximately 20 nM
[5]
  Induction of the TPH promoter: not induced
